Measurements from the supplement of paper PMC10307832.

Columns and labels:
Assay in all cases: relative viability (nuclei count vs DMSO), 5 days (fraction); higher = more cells survive
Motesanib + OSI-027 = compound: CC1(C)CNc2cc(NC(=O)c3cccnc3NCc3ccncc3)ccc21 [Motesanib] + COc1cccc2cc(-c3nc([C@H]4CC[C@H](C(=O)O)CC4)n4ncnc(N)c34)[nH]c12 [OSI-027] (partner 0.5 µM)
How it was run: (§1)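 Dosing by pin tool came one day after lung cancer cell lines were seeded in 1536-well plates, using either one drug or a fixed anchor-drug dose plus five library-drug doses (not always all listed) in √10 steps. After 5 days, nuclei were counted on 4× images. Relative viability is treated-well nuclei count divided by vehicle-well nuclei count, and values are medians of duplicate plates.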

Motesanib + Vorinostat = compound: CC1(C)CNc2cc(NC(=O)c3cccnc3NCc3ccncc3)ccc21 [Motesanib] + O=C(CCCCCCC(=O)Nc1ccccc1)NO [Vorinostat] (partner 1 µM)
How it was run: as §1

[1] = compound: C[C@@]1(C(=O)Nc2ccc(F)nc2)CCCN1c1nc(Nc2cc(C3CC3)n[nH]2)c2cccn2n1 + CC1(C)CCC(c2ccc(Cl)cc2)=C(CN2CCN(c3ccc(C(=O)NS(=O)(=O)c4ccc(N[C@H](CCN5CCOCC5)CSc5ccccc5)c(S(=O)(=O)C(F)(F)F)c4)cc3)CC2)C1 [Navitoclax] (partner 0.5 µM)
How it was run: as §1

[2] = compound: C[C@@]1(C(=O)Nc2ccc(F)nc2)CCCN1c1nc(Nc2cc(C3CC3)n[nH]2)c2cccn2n1 + C[C@]1(O)C[C@@H](c2nc(-c3ccc4ccc(-c5ccccc5)nc4c3)c3c(N)nccn32)C1 [Linsitinib] (partner 1 µM)
How it was run: as §1

| Cell Line | relative viability (Motesanib + OSI-027; first compound 0.01 µM) | relative viability (Motesanib + OSI-027; first compound 0.03162 µM) | relative viability (Motesanib + OSI-027; first compound 0.1 µM) | relative viability (Motesanib + OSI-027; first compound 0.3162 µM) | relative viability (Motesanib + OSI-027; first compound 1 µM) | relative viability (Motesanib + Vorinostat; first compound 0.01 µM) | relative viability (Motesanib + Vorinostat; first compound 0.03162 µM) | relative viability (Motesanib + Vorinostat; first compound 0.1 µM) | relative viability (Motesanib + Vorinostat; first compound 0.3162 µM) | relative viability (Motesanib + Vorinostat; first compound 1 µM) | relative viability ([1]; first compound 0.04 µM) | relative viability ([1]; first compound 0.1265 µM) | relative viability ([1]; first compound 0.4 µM) | relative viability ([1]; first compound 1.265 µM) | relative viability ([2]; first compound 0.04 µM) | relative viability ([2]; first compound 0.1265 µM) | relative viability ([2]; first compound 0.4 µM) | relative viability ([2]; first compound 1.265 µM) |
| --- | --- | --- | --- | --- | --- | --- | --- | --- | --- | --- | --- | --- | --- | --- | --- | --- | --- | --- |
| HCC-366 | 0.964 | 0.959 | 0.863 | 0.881 | 1.03 | 0.382 | 0.388 | 0.443 | 0.375 | 0.308 | 1.12 | 0.966 | 0.688 | 1.19 | 0.732 | 0.446 | 0.459 | 0.677 |
| HCC-827 | 0.669 | 0.809 | 0.749 | 0.761 | 0.755 | 0.759 | 0.945 | 0.881 | 0.666 | 0.885 | 1.02 | 1 | 1.01 | 1 | 0.94 | 0.973 | 0.945 | 0.961 |
| HOP-62 | 0.843 | 0.912 | 0.839 | 0.92 | 0.815 | 0.668 | 0.677 | 0.599 | 0.972 | 0.799 | 1.12 | 0.887 | 0.826 | 1.03 | 0.927 | 0.773 | 1.06 | 1.06 |
| IA-LM |  |  |  |  |  | 0.91 | 0.936 | 0.953 | 0.935 | 0.767 | 0.983 | 0.904 | 0.746 | 0.593 | 0.602 | 0.718 | 0.459 | 0.452 |
| LC-2-ad | 0.927 | 0.948 | 0.872 | 0.803 | 0.716 | 0.694 | 0.694 | 0.811 | 0.808 | 0.709 | 0.379 | 0.373 | 0.296 | 0.143 | 0.897 | 0.865 | 0.788 | 0.576 |
| LCLC-97TM1 | 0.519 | 0.56 | 0.465 | 0.58 | 0.537 | 0.796 | 0.884 | 0.495 | 0.858 | 0.575 | 0.117 | 0.32 | 0.196 | 0.324 | 0.191 | 0.173 | 0.163 | 0.207 |
| LCLC-103H | 0.471 | 0.467 | 0.465 | 0.429 | 0.466 | 0.756 | 0.843 | 0.815 | 1.02 | 0.762 |  |  |  |  | 1.23 | 1.01 | 1.01 | 1.18 |
| LK-2 | 0.225 | 0.195 | 0.168 | 0.218 | 0.256 | 0.271 | 0.311 | 0.386 | 0.433 | 0.486 |  | 0.843 | 0.368 | 0.494 | 0.579 | 1.11 | 0.376 | 0.573 |
| LOU-NH91 | 0.717 | 0.764 | 0.721 | 0.722 | 0.743 | 0.918 | 0.932 | 0.993 | 1 | 0.992 | 0.706 | 0.77 | 0.61 | 0.686 | 0.937 | 1.12 | 0.82 | 0.977 |
| LU99A | 0.287 | 0.261 | 0.301 | 0.307 | 0.322 | 0.473 | 0.593 | 0.505 | 0.645 | 0.484 | 0.652 | 0.71 | 0.491 | 0.574 | 0.544 | 0.497 | 0.499 | 0.467 |
| NCI-H358 | 0.9 | 0.802 | 0.767 | 0.906 | 0.716 | 0.641 | 0.67 | 0.71 | 0.819 | 0.649 |  |  |  |  | 0.654 | 0.663 | 0.494 | 0.474 |
| NCI-H522 | 0.741 | 0.585 | 0.417 | 0.659 | 0.732 | 0.89 | 0.927 | 0.92 | 0.909 | 1.05 |  |  |  |  |  |  |  |  |
| NCI-H650 | 0.529 |  | 0.539 | 0.574 | 0.537 | 0.435 | 0.439 | 0.554 | 0.549 | 0.477 |  |  |  |  | 1.19 | 0.706 | 0.804 | 0.721 |
| NCI-H661 | 0.73 | 0.741 | 0.848 | 0.749 | 0.576 | 0.775 | 0.737 | 0.766 | 0.797 | 0.883 |  |  |  |  | 0.63 | 0.809 | 0.571 | 0.545 |
| NCI-H1299 |  |  |  |  |  |  |  |  |  |  | 1.08 | 0.976 | 1.04 | 1.02 | 0.988 | 1.04 | 1 | 0.988 |
| NCI-H1563 | 0.754 | 0.799 | 0.797 | 0.752 | 0.704 |  |  |  |  |  |  |  |  |  | 1.11 | 1.07 | 1.06 | 1.16 |
| NCI-H1623 | 0.454 | 0.475 | 0.475 | 0.389 | 0.409 |  |  |  |  |  |  |  |  |  |  |  |  |  |
| NCI-H1648 | 0.275 | 0.283 | 0.268 | 0.275 | 0.295 | 0.314 |  |  | 0.557 | 0.421 |  |  |  |  |  |  |  |  |
| NCI-H1650 | 0.747 | 0.688 | 0.725 | 0.562 | 0.586 | 0.642 | 0.6 | 0.714 | 0.67 | 0.571 | 0.955 | 1.14 | 0.955 | 1.08 |  |  |  |  |
| NCI-H1703 |  |  |  |  |  |  |  |  |  |  | 1.25 | 1.02 | 0.783 | 0.743 | 1.03 | 0.457 | 0.632 | 0.695 |
| NCI-H1792 |  | 0.65 | 0.723 | 0.824 | 0.651 |  |  |  |  |  | 0.422 | 0.36 | 0.464 | 0.393 | 0.654 | 0.596 | 0.503 | 0.713 |
| NCI-H2170 | 0.686 | 0.687 | 0.748 | 0.718 | 0.775 | 0.797 | 0.851 | 0.804 | 0.837 | 0.818 | 0.514 | 0.652 | 0.518 | 0.652 |  |  |  |  |
| NCI-H2342 | 0.555 | 0.654 | 0.672 | 0.505 | 0.637 | 0.702 | 0.77 | 0.715 | 0.704 | 0.751 |  |  |  |  |  |  |  |  |
| SW 900 | 0.65 | 0.515 | 0.651 | 0.61 | 0.656 | 0.542 | 0.404 | 0.574 | 0.649 | 0.59 |  |  |  |  |  |  |  |  |
